We go through five compounds from paper PMC4104174 (Journal of the American Chemical Society, 2014).

One data set addresses hCAII. The following applies: cited from earlier work.
Data set [1] has as its target human carbonic anhydrase II (hCAII) (Homo sapiens, UniProt P00918). Description: hCAII activity assay. The class given is biochemical.
The conditions of data set [2]: free ligand acidity; cited from earlier work.

Read-outs that look alike come from different tables or passages of the source.

As for 2-mercaptopyridine-N-oxide [1,2-HOPTO], the inhibitory constant (Ki) on hCAII (previously reported) was 850 µM.

For `Oc1ccccc1S` [2-MP, 2-mercaptophenol], at hCAII, the Ki was 3 ± 0.7 µM.

With `Cc1cc(=S)c(O)co1` [ATM, 5-hydroxy-2-methyl-4H-pyran-4-thione], in data set [1], the inhibition constant (Ki) came out at 650 ± 60 µM. For the same compound, the “fold more potent (Ki) than TM and TPMA” value in data set [1] (ATM vs TM and TPMA, hCAII) is given as “roughly 2 fold”. The pKa in data set [2] is given as 7.64.

On to `Cc1occc(=S)c1O` [TM, 3-hydroxy-2-methyl-4H-pyran-4-thione], for which the inhibition constant Ki in data set [1] turned out to be 1400 ± 200 µM. The pKa in data set [2] is reported as 8.06.

Compound `Oc1coccc1=S` [TPMA, 3-hydroxy-4H-pyran-4-thione] returned a Ki in data set [1] of 1100 ± 200 µM.
